Measured values taken from US7138246B2, “Methods for identifying or screening for agents that modulate 17β-HSD3” (Bristol-Myers Squibb Company, priority 2004, dated 2006).
Like-named read-outs stand apart in the source and are kept apart here.

Key:
17β-HSD3 [1] = target: T1, 17β-HSD3 (Homo sapiens, UniProt P37058); assay: 17β-HSD3 scintillation proximity assay (SPA); assay type: biochemical; set-up: made in house; CHAPS-solubilised 100,000 x g supernatant
T1 sequence (P37058 1-310): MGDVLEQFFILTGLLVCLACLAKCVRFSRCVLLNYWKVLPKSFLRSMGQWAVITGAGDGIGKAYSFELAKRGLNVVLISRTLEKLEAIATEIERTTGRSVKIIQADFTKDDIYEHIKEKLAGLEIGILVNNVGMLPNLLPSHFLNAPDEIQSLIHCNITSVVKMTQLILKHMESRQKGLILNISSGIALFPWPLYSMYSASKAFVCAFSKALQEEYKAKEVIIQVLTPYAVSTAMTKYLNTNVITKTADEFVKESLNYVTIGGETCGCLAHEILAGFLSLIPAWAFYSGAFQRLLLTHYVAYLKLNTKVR
Description: (§1) HEK293/17β-HSD3 cells were harvested by scraping or treatment with Cell Dissociation Buffer (Invitrogen) and collected in ice cold Phosphate Buffered Saline (PBS) containing a protease inhibitor cocktail (Complete Tabs, Roche Diagnostics). The cells were then pelleted by centrifugation at 1000 rpm and washed once more in the same buffer. The cells were then resuspended in 2× the cell pellet volume with ice cold lysis buffer (40 mM Tris-HCl pH7.5, 2 mM DTT, 1 mM EDTA, 10% Glycerol (v/v), 0.5% CHAPS (w/v), 1M 1-(3-sulfopropyl)pyridinium hydroxide, Complete Tab(s)) and dounce homogenized on ice. The crude lysate was then incubated on ice for 60 minutes to allow for membrane protein solubilization, followed by centrifugation at 100,000×g for 60 minutes at 4° C. The supernatant was then removed and dialyzed overnight at 4° C. against the enzyme storage buffer (40 mM Tris-HCl pH 7.5, 40 mM KCl, 2 mM DTT, 1 mM EDTA, 20% Glycerol (v/v), Complete Tab(s)). Protein concentration was determined by the Bradford assay, the enzyme was aliquotted, and stored at −80° C. Activity was assessed using the SPA described below.
SPA beads conjugated to anti-mouse IgG were incubated overnight in SPA Bead Buffer (50 mM Tris pH 8.0, 10% Glycerol (v/v)), with anti-Testosterone monoclonal antibody (2 μg antibody per 1 mg of SPA beads) under gentle rotation. The antibody saturated bead complex was then spun down at 500 rpm for 10 minutes at 4° C. and the beads were resuspended in SPA Bead Buffer at a final concentration of 0.5 mg/160 μL. The anti-T/SPA Beads were then stored at 4° C. until needed. Enzymatic assays were conducted in 30 μL total reaction volumes in 96-well white Optiplates (Perkin Elmer). The reaction buffer consisted of 50 mM MES pH 6.0, 2 mM DTT, 0.1% CHAPS, 3 mM NADPH, 10% Glycerol (v/v), 850 nM 4-Androstene-3,17-Dione, and 50 nM [3H]4-Androstene-3,17-Dione (Specific Activity 70–110Ci/mmol). Compounds were diluted such that the final concentration of ethanol and DMSO would not exceed 3% (v/v) and 1% (v/v) respectively, corresponding to concentrations that had little or no effect on enzymatic activity (data not shown). Previously prepared and frozen 17β-HSD3 enzyme was diluted into ice cold buffer containing 50 mM Mes, 40 mM KCl, 2 mM DTT, 1 mM EDTA, and 10% glycerol (v/v) and added last to the reaction mixture. The reaction was allowed to proceed for 60 minutes at room temperature and was stopped by the addition of 10 μL of 0.1N HCl. After the reactions were stopped, an excess of the anti-T/SPA Beads (0.5 mg) were added to each well to a final volume of 200 μL. The plates were sealed and shaken at ˜200 rpm on an orbital shaker at room temp for at least 90 minutes or overnight at 4° C. After allowing the beads to settle, the amount of [3H]Testosterone produced in each well was determined by scintillation counting on a Perkin Elmer TopCount instrument and collected as DPMs. The data was then analyzed and percent inhibition and/or IC50 values, based on 10 point serially diluted curves in duplicate or triplicate, were calculated using Microsoft Excel and XLFit programs. […] Input samples and unbound supernatants, from the enzymatic reactions, were quantitated by scintillation counting to aid in the calculation of bound versus free testosterone produced. Km values were calculated using the Lineweaver-Burke formula and plots where 1/v=(Km+[s])/(Vmax [s]). […]

17β-HSD3 [2] = target: T1, 17β-HSD3; assay: 17β-HSD3 SEAP assay (PSA reporter) in MDA MB 453/17β-HSD3 cells; assay type: cell-based; set-up: expressed in transfected cells
Description: Cultured MDA MB 453/17β-HSD3 cells were trypsinized, spun at 1000 rpm for 10 minutes, and resuspended in DMEM/10% cFBS supplemented with 5 mM BES at a concentration of 4×10^7 cells per mL. The cells (aliquots of 1×10^7 cells) were then transiently transfected with 3 μg of the PSA-SEAP construct by electroporation at 0.22 kVolts and 960 μFD with a time constant of […]. After a short recovery period, the cells were spun down and resuspended in DMEM/10% cFBS and plated into 96-well tissue culture plates (5×10^5 cells per well in 50 μL). After overnight adherence, the compounds were diluted in DMEM/10% and cFBS was added to the cells. 24 hours later, the medium was removed, fresh media containing the compounds was added in the presence of 10 nM Androstenedione, and this mixture was allowed to incubate for 24 hours. 25 μL of the culture supernatant was then removed and plated into 96-well black Optiplates (Perkin Elmer) for SEAP measurement as described by the reagent manufacturer (Tropix). Briefly, the supernatant was heat inactivated at 65° C. for 30 minutes and then allowed to cool to room temperature. Assay buffer (25 μL, Tropix) was then added and allowed to mix for 5 minutes followed by the addition of the Reaction buffer (25 μL, Tropix) and the plates were then incubated for 20 minutes in the dark. Plates were then read using a Packard Instruments TopCount with luminescent detection and signal was captured for 10 seconds per well and photon emission (cps) was averaged. A standard MTS assay (Promega) as described by the manufacturer, was performed in parallel to normalize the data based on cell numbers. Data analysis including percent inhibition and IC50 determination, based on 10 point serially diluted curves in duplicate, was then performed using Microsoft Excel and XLFit.
The analysis of 17β-HSD3 steroid conversion by TLC is hampered by the limitation to examine large numbers of compounds. […] To test this system, a prostate specific antigen (PSA) reporter plasmid was transfected into MDA-MB453 cells stably expressing 17β-HSD3 and stimulated with different concentrations of androstenedione (FIG. 5B).
To evaluate the suitability of this cellular assay for monitoring 17β-HSD3 cell based activity, the inhibitory effects of 18β-glycyrrhetinic acid and […] were examined.

17β-HSD3 [3] = target: T1, 17β-HSD3; set-up: made in house; CHAPS-solubilised 100,000 x g supernatant; details: read-out: Km for androstenedione, previously published value; human 17β-HSD3 prepared from testes microsomal fractionation; cited from earlier work
[4] = substrate: C[C@]12CCC(=O)C=C1CC[C@@H]1[C@@H]2CC[C@]2(C)C(=O)CC[C@@H]12; assay: 17β-HSD3 scintillation proximity assay (SPA); assay type: biochemical, human; details: other: 17β-HSD3 from HEK293 transfectants; 0.01 to 10 μM input androstenedione; 3 mM NADPH
Description: as §1, with “The crude lysate was then incubated on ice for 60 minutes to allow for membrane protein solubilization, followed by centrifugation at 100,000×g for 60 minutes at 4° C. The supernatant was then removed and dialyzed overnight at 4° C. against the enzyme storage buffer (40 mM Tris-HCl pH 7.5, 40 mM KCl, 2 mM DTT, 1 mM EDTA, 20% Glycerol (v/v), Complete Tab(s)).” left out
SPA beads conjugated to anti-mouse IgG were incubated overnight in SPA Bead Buffer (50 mM Tris pH 8.0, 10% Glycerol (v/v)), with anti-Testosterone monoclonal antibody (2 μg antibody per 1 mg of SPA beads) under gentle rotation. […] After allowing the beads to settle, the amount of [3H]Testosterone produced in each well was determined by scintillation counting on a Perkin Elmer TopCount instrument and collected as DPMs. The data was then analyzed and percent inhibition and/or IC50 values, based on 10 point serially diluted curves in duplicate or triplicate, were calculated using Microsoft Excel and XLFit programs. […]

NC(=O)C1=CN([C@@H]2O[C@H](COP(=O)(O)OP(=O)(O)OC[C@H]3O[C@@H](n4cnc5c(N)ncnc54)[C@H](OP(=O)(O)O)[C@@H]3O)[C@@H](O)[C@H]2O)C=CC1 [NADPH]
Km (17β-HSD3 [1]; Lineweaver-Burke plots, read-out: Km for NADPH): 30 µM

C[C@]12CCC(=O)C=C1CC[C@@H]1[C@@H]2CC[C@]2(C)C(=O)CC[C@@H]12 [androstenedione]
induction of PSA reporter (17β-HSD3 [2]): 9 fold
activation of PSA reporter (17β-HSD3 [2]; 12 nM androstenedione, 17β-HSD3-MDA-MB453 transfectants): 9 fold
induction of PSA reporter (17β-HSD3 [2]; 1 μM androstenedione, 17β-HSD3-MDA-MB453 cells): 25 fold
Km (17β-HSD3 [3]): 0.72 µM

CC(C)(O)C(=O)Nc1ccc([N+](=O)[O-])c(C(F)(F)F)c1 [hydroxyflutamide]
17β-HSD3 inhibitory activity in the SPA (17β-HSD3 [1]; FIG. 3B): did not display 17β-HSD3 inhibitory activity

B1: human 17β-HSD3 (Homo sapiens) (protein)
chain: MGDVLEQFFILTGLLVCLACLAKCVRFSRCVLLNYWKVLPKSFLRSMGQWAVITGAGDGIGKAYSFELAKRGLNVVLISRTLEKLEAIATEIERTTGRSVKIIQADFTKDDIYEHIKEKLAGLEIGILVNNVGMLPNLLPSHFLNAPDEIQSLIHCNITSVVKMTQLILKHMESRQKGLILNISSGIALFPWPLYSMYSASKAFVCAFSKALQEEYKAKEVIIQVLTPYAVSTAMTKYLNTNVITKTADEFVKESLNYVTIGGETCGCLAHEILAGFLSLIPAWAFYSGAFQRLLLTHYVAYLKLNTKVR
notes: made in house; CHAPS-solubilised 100,000 x g supernatant
Km [4]: 0.92 µM
